Test results taken from PMC10754035 (Cancer Research Communications, 2023).
Read-outs that look alike come from different tables or passages of the source.

How the values were obtained:
KRAS G12D [1] = target: T1, KRAS G12D (Homo sapiens, UniProt P01116, G12D); set-up: method as in PMID 31332011; settings: ITC; cited from earlier work
T1 construct: Human His-tagged KRAS4B (1-169) G12D, G12V and G12C were custom synthesized; 6His (pET-28a(+)-TEV vector) (N); host or cells: E. coli BL21 star (DE3)

[2] = target: T2, GTP-KRAS G12D binding to GST-RBD (Homo sapiens, UniProt P01116, G12D); assay: KRAS G12D/GST-RBD pulldown assay; assay type: biochemical; settings: for IC50: GST pulldown, Fig. 2 legend, read-out: IC50, inhibition of GTP-KRAS G12D/GST-RBD binding
T2 construct: Human His-tagged KRAS4B (1-169) G12D, G12V and G12C were custom synthesized; Addgene (GST-RBD) Addgene 13338; host or cells: E. coli BL21 star (DE3)
Description: For pulldown experiment, KRAS G12D was preloaded with either GTP or GDP as described above. GDP- or GTP-bound KRAS G12D proteins (250 nmol/L in 100 µL) were then incubated with indicated compound at 37°C for 15–16 minutes. GST-RBD (final 500 nmol/L) was then added and the mixture rocked at 37°C for 1 hour. Pierce glutathione agarose beads (Thermo Fisher Scientific; 20 µL) were then added and the mixture rocked at 37°C for 1 hour. The beads were then washed and the samples were processed for SDS-PAGE and Western blotting with respective antibodies to check the interaction between KRAS-GTP and GST-RBD proteins in presence or absence of the compounds. All the protein dilutions and washes were carried out in a buffer containing 25 mmol/L Tris (pH 7.5), 100 mmol/L NaCl, 5 mmol/L MgCl2, 1% NP-40, 5% glycerol, and 0.1 mmol/L DTT.
Expression and purification of GST-RBD: The Raf1-GST-RBD in pGEX-2T vector in DH5α cells was obtained from Addgene (Raf1 GST RBD 1-149, Plasmid catalog # 13338). GST-RBD plasmid DNA was transformed in BL21*(DE3) bacteria, streaked on agar plate to obtain the colonies . A distinct colony was picked and grown in ampicillin selection media to OD600 of around 0.6-0.8 before induction with IPTG (0.5 mM). Bacterial pellet was resuspended with lysis buffer (50 mM Tris HCL (pH 7.5), 150 mM NaCl, 0.5% Triton X-100, 5 mM MgCl2, 1 mM DTT, 10% Glycerol, 3 mM β-mercaptoethanol) and homogenized. The homogenized lysate was centrifuged at 14000 rpm at 4 °C for 40 min and the resulting supernatant was collected and filtered. The filtered supernatant was incubated with glutathione agarose (Pierce^TM) beads (Thermo Scientific, USA) at 4 °C for 60 min. After incubation, beads and lysate suspension was passed through Bio-Rad Econo column. The beads were washed using lysis buffer (as described above), and the GST-RBD eluted with elution buffer (50 mM Tris HCL (pH 7.5), 150 mM NaCl, 0.5% Triton X-100, 5 mM MgCl2, 1 mM DTT, 10% Glycerol, 10 mM Glutathione). Eluted GST-RBD protein fractions were buffer exchanged into 25 mM Tris (pH 7.5), 150 mM NaCl, 0.5 mM DTT and 5 mM MgCl2 buffer and stored at -80°C.
GTP and GDP nucleotide exchange for GST-RBD pull down: KRAS protein was exchanged with GTP (Sigma, USA) and GDP (Sigma, USA) using EDTA- loading procedure. The RAS proteins (235 µM final) were incubated with ~40-fold molar excess of EDTA (10 mM final), and ~45-fold molar excess of either GDP or GTP for 90 min at 37°C. After incubation, the sample was kept on ice for 10 minutes before incubating with ice-cooled 1M MgCl2 (65 mM final) for 20 minutes to stop the reaction. To remove excess unbound nucleotide, EDTA and magnesium, the proteins were re-buffered using PD10 columns (GE Life Sciences) into (25 mM Tris (pH 7.5), 150 mM NaCl, 0.5 mM DTT and 5 mM MgCl2) buffer and concentrated using Millipore spin ultrafiltration devices (10,000 Da cut off, 4,000 x g). The protein concentration was measured using Pierce Rapid GOLD BCA Protein Assay Kit (Thermo Scientific, USA) and aliquots were stored in -80°C.

KRAS G12D [3] = target: T1, KRAS G12D; assay: Isothermal titration calorimetry, KRAS G12D; assay type: binding; settings: ITC, KRAS G12D-NE (non-exchanged), 25°C
Description: All isothermal titration calorimetry (ITC) experiments were carried out at 25°C on a MicroCal PEAQ ITC Automated (Malvern). […] The final ITC buffer in the syringe and the cell was 25 mmol/L Tris HCl (pH 8.0), 100 mmol/L NaCl, 0.1 mmol/L DTT, 5% glycerol, 1% NP40, 5 mmol/L MgCl2, and 5% DMSO. ITC titration experiments were carried out with 19 injections, 2 µL per injection, and 150 seconds spacing between each injection. Reference cell power was set to 5 µcal/second and stirring speed was 750 rpm. Data were analyzed using a one site binding model with the Malvern analysis software. All ITC experiments were performed at the biophysical facility at the Institute for Structural Biology, Drug Discovery and Development (ISB3D) at Virginia Commonwealth University (Richmond, VA) and the Massey Cancer Center.
Expression and purification of RAS proteins: Human His-tagged KRAS4B (1-169) G12D, G12V and G12C were custom synthesized and cloned into pET-28a(+)-TEV vector to generate pET-28a(+)-6His-KRAS (1-169) plasmids by GenScript USA Inc., Piscataway, NJ. The proteins were expressed and purified as described below. The full length biotinylated human KRAS4B G12D (His6-MBP-tev-Avi-Hs.KRAS4b G12D (2-188) protein was obtained from Dr Dominic Esposito and Dr. William Gillette from the NCI RAS Initiative at the Frederick National Laboratory. Avi-KRAS4b (2-188) G12D was cloned, expression and purified as described previously (1,2).
Expression and purification of KRAS proteins: BL21 star (DE3) competent cells were transformed with pET-28a(+)-6His-KRAS (1-169) plasmids from GenScript, and the resulting colonies were picked under kanamycin selection. The colonies were grown in LB broth and induced with 0.5mM IPTG for 4 hours when OD reached 0.6-0.8. Bacteria pellets were lysed in 25mM Tris HCL (pH7.8) buffer containing 300mM NaCl, 5mM MgCl2, 10mM Imidazole, 5% Glycerol and 3mM β-mercaptoethanol. Membrane filter-cleared lysate supernatants were incubated with HisPur Ni-NTA resin (Thermo scientific) in an oscillating platform at 4°C for 50 minutes. Econo disposable column (Bio-Rad) was used for washing the beads 3 times with 25mM Tris HCl (pH7.8), 300mM NaCl, 5mM MgCl2, 5% Glycerol buffer with 10mM, 20mM and 30mM Imidazole, respectively. Elution was carried with 25mM Tris HCl (pH7.8), 300mM NaCl, 5mM MgCl2, 5% Glycerol and 500mM Imidazole buffer. After confirming the eluted fraction purity on SDS-PAGE gel, proteins fractions were further purified using HiLoad 16/600 superdex 75 PG column in AKTA system. Protein was eluted in 25mM Tris HCL (pH7.8), 150mM NaCl, 5mM MgCl2 and 0.5mM DTT. KRAS protein aliquots were stored in -80°C.
GCP and NH-GDP nucleotide exchange for ITC: KRAS G12D protein in 25 mM Tris HCL (pH 8.0), 1 mM Calcium Chloride Dihydrate and 200 mM (NH4)2SO4 buffer was added to alkaline phosphatase beads (Sigma, USA) (2U per mg of KRAS) and to non-hydrolysable nucleotide analogs, GCP (β,γ-Methyleneguanosine 5′-triphosphate sodium salt, Sigma, USA) or GDP-NH (Guanosine 5′-[β-thio]diphosphate trilithium salt, Sigma, USA) in molar ratio of 10:1 (Nucleotide:KRAS). The reaction mixture was incubated with gentle rotation for 14-18 hrs at 4 °C. After incubation, the mixture was centrifuged at 1500 g, 4°C to remove the alkaline phosphatase beads. MgCl2 (20 mM) and an additional amount of GCP or NH-GDP in molar ratio of 5:1 (Nucleotide:KRAS) were added, and incubated at room temperature for 1 hr. After incubation, nucleotide exchanged protein was desalted and buffer exchanged at 4 °C using PD-10 column (Catalog # 17085101, GE Healthcare, USA), into a final buffer containing 25 mM Tris HCL (pH 7.5), 150 mM NaCl, 5 mM MgCl2 and 0.5 mM DTT. Buffer exchanged protein was concentrated using Amicon ultra centrifugal filter-10K cut off (Catalog # UFC501024, MilliporeSigma, USA). The protein concentration was measured using Pierce Rapid GOLD BCA Protein Assay Kit (Thermo Scientific, USA) and aliquots were stored in -80°C.

T2 sequence (P01116 1-169 isoform P01116-2 G12D): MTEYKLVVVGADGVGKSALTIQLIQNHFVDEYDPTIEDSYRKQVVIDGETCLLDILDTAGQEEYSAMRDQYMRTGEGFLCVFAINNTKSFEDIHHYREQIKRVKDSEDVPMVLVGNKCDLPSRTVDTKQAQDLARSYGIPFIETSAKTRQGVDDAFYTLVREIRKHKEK
T1 sequence (P01116 1-169 isoform P01116-2 G12D): as above

Row | loss of potency relative to KRB-456 ([2]; GST pulldown IC50) | IC50 [2] | Kd (KRAS G12D [3]) | Structure (SMILES) | Kd (KRAS G12D [1])
1 | – | – | – | Cn1cnc(Cn2ccc3ccc(CNCc4[nH]c5ccccc5c4[C@H]4NC(=O)c5ccc(O)cc54)cc32)c1 [BI-2852] | 740 nM
2 | about 10 fold | 2020 nM | 4810 nM | C=C1C[C@]23C[C@@]1(OC(C)=O)CC[C@H]2[C@@]12C=CC(=O)[C@@](C)(C(=O)O1)[C@H]2[C@@H]3C(=O)OC [IB-21J] | –
3 | – | 360 nM | 641 nM | COC(=O)C1C2C3(C)C(=O)C=CC2(OC3=O)C2CCC3(CI)CC12CC3=O (centres unmarked) [IB-21G] | –
4 | – | 10800 nM | 11600 nM | C=C1C[C@]23C[C@@]1(O)CC[C@H]2[C@@]12C=CC(=O)[C@@](C)(C(=O)O1)[C@H]2[C@@H]3C(=O)NCc1ccccc1 [IIA-15D] | –
